Measured values from patent US10981917B2, “Heterocyclic compound, its preparation method, and pharmaceutical composition comprising the same” (Daewoong Pharmaceutical Co., Ltd., priority 2017, dated 2021).

The molecules below were run against PRS (prolyl-tRNA synthetase) protein, PRS portion of EPRS (Homo sapiens (Human), UniProt P07814) (assay: PRS enzyme activity inhibition experiment ([3H]proline, liquid scintillation)). Conditions: purified PRS protein, 37° C. for 5 to 10 minutes.
Format: biochemical
How it was run: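 Values are % inhibition or IC50 ranges (A ≤100 nM, B 100–500 nM, C ≥500 nM) from [3H]proline incorporation measured by liquid scintillation. PRS portion of human EPRS, reacted 5–10 min at 37 °C in pH 7.4 phosphate buffer containing 5 mM ATP and tRNA, compound at 1 μM.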

Sequence of PRS (prolyl-tRNA synthetase) protein, PRS portion of EPRS (P07814 1007-1512): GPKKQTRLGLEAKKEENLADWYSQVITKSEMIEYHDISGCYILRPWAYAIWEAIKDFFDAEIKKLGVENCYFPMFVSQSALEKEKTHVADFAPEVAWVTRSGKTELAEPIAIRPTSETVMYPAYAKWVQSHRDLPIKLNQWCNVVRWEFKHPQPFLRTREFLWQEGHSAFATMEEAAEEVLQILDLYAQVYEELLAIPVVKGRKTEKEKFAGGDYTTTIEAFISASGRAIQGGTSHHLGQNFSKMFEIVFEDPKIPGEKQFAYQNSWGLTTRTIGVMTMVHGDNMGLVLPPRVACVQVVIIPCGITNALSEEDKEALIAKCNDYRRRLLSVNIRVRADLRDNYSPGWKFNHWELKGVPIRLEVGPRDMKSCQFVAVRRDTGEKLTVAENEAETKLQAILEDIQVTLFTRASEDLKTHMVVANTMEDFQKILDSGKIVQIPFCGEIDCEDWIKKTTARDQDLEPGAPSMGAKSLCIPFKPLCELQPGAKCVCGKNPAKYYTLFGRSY

`O[C@H]1CCCN[C@@H]1CCCn1cnc2c(Cl)c(C(F)(F)F)ccc21` [Example 66, (2R,3S)-2-(3-(4-chloro-5-(trifluoromethyl)-1H-benzo[d]imidazol-1-yl)propyl)piperidin-3-ol] was tested. Which IC50 did it give?
The IC50 was ≥ 500 nM.

How did the IC50 turn out when `Cc1cc(Cl)cc2c1ncn2C/C=C/[C@H]1NCCC[C@@H]1O` [Example 180, (2R,3S)-2-((E)-3-(6-chloro-4-methyl-1H-benzo[d]imidazol-1-yl)prop-1-en-1-yl)piperidin-3-ol] was run?
Its IC50 is 100 to 500 nM.

For `O=[N+]([O-])c1c(Br)ccc2ncn(C/C=C/[C@H]3NCCC[C@@H]3O)c12` [Example 177, (2R,3S)-2-((E)-3-(6-bromo-7-nitro-1H-benzo[d]imidazol-1-yl)prop-1-en-1-yl)piperidin-3-ol], which IC50 is on record?
The IC50 was ≥ 500 nM.

How did the IC50 turn out when `O[C@H]1CCCN[C@@H]1CCCn1cnc2cccc(Br)c21` [Example 5, (2R,3S)-2-(3-(7-bromo-1H-benzo[d]imidazol-1-yl)propyl)piperidin-3-ol] was run?
The IC50 was 100 to 500 nM.

Which IC50 does the source give for `O[C@H]1CCCN[C@@H]1CCCn1cnc2cc(Cl)cc(Br)c21` [Example 69, (2R,3S)-2-(3-(7-bromo-5-chloro-1H-benzo[d]imidazol-1-yl)propyl)piperidin-3-ol] here?
The IC50 was ≤ 100 nM.

Which IC50 does the source give for `O=[N+]([O-])c1c(Br)ccc2ncn(CCC[C@H]3NCCC[C@@H]3O)c12` [Example 76, (2R,3S)-2-(3-(6-bromo-7-nitro-1H-benzo[d]imidazol-1-yl)propyl)piperidin-3-ol] here?
Its IC50 is ≥ 500 nM.

Which IC50 does the source give for `O[C@H]1CCCN[C@@H]1CCCn1cnc2cc(Cl)cc(-c3ccoc3)c21` [Example 104, (2R,3S)-2-(3-(5-chloro-7-(furan-3-yl)-1H-benzo[d]imidazol-1-yl)propyl)piperidin-3-ol] here?
Its IC50 is ≤ 100 nM.

For `O[C@H]1CCCN[C@@H]1CCCn1cnc2c(Cl)c(-c3cccc(Cl)c3)cnc21` [Example 134, (2R,3S)-2-(3-(7-chloro-6-(3-chlorophenyl)-3H-imidazo[4,5-b]pyridin-3-yl)propyl)piperidin-3-ol], which IC50 is on record?
The IC50 was ≥ 500 nM.

Which IC50 does the source give for `O[C@H]1CCCN[C@@H]1/C=C/Cn1cnc2c(Cl)c(-c3cccc(Cl)c3)cnc21` [Example 185, (2R,3S)-2-((E)-3-(7-chloro-6-(3-chlorophenyl)-3H-imidazo[4,5-b]pyridin-3-yl)prop-1-en-1-yl)piperidin-3-ol] here?
Its IC50 is ≥ 500 nM.

With `Cc1cc(Br)cc2c1ncn2CCC[C@H]1NCCC[C@@H]1O` [Example 63, (2R,3S)-2-(3-(6-bromo-4-methyl-1H-benzo[d]imidazol-1-yl)propyl)piperidin-3-ol] as the molecule, how does the IC50 read?
The IC50 was ≤ 100 nM.

`Cc1ccc2ncn(CCC[C@H]3NCCC[C@@H]3O)c2c1` [Example 13, (2R,3S)-2-(3-(6-methyl-1H-benzo[d]imidazol-1-yl)propyl)piperidin-3-ol] was tested. Which IC50 did it give?
Its IC50 is ≥ 500 nM.

How did the IC50 turn out when `O[C@H]1CCCN[C@@H]1CCCn1nc(-c2cnn(C(F)F)c2)c2cc(Cl)ccc21` [Example 157, (2R,3S)-2-(3-(5-chloro-3-(1-(difluoromethyl)-1H-pyrazol-4-yl)-1H-indazol-1-yl)propyl)piperidin-3-ol] was run?
Its IC50 is ≥ 500 nM.

For `O[C@H]1CCCN[C@@H]1CCCn1cnc2cc(Br)c(Br)cc21` [Example 54, (2R,3S)-2-(3-(5,6-dibromo-1H-benzo[d]imidazol-1-yl)propyl)piperidin-3-ol], which IC50 is on record?
Its IC50 is ≥ 500 nM.

Which IC50 does the source give for `O[C@H]1CCCN[C@@H]1CCCn1cnc2ccc(C(F)(F)F)c(Cl)c21` [Example 67, (2R,3S)-2-(3-(7-chloro-6-(trifluoromethyl)-1H-benzo[d]imidazol-1-yl)propyl)piperidin-3-ol] here?
The IC50 was ≤ 100 nM.

How did the IC50 turn out when `O[C@H]1CCCN[C@@H]1CCCn1nc(-c2cnn(C(F)F)c2)c2ccc(Cl)cc21` [Example 158, (2R,3S)-2-(3-(6-chloro-3-(1-(difluoromethyl)-1H-pyrazol-4-yl)-1H-indazol-1-yl)propyl)piperidin-3-ol] was run?
Its IC50 is ≥ 500 nM.

How did the IC50 turn out when `O[C@H]1CCCN[C@@H]1CCCn1cnc2ccc(F)cc21` [Example 8, (2R,3S)-2-(3-(6-fluoro-1H-benzo[d]imidazol-1-yl)propyl)piperidin-3-ol] was run?
The IC50 was ≥ 500 nM.

How did the IC50 turn out when `O[C@H]1CCCN[C@@H]1CCCn1nc(C2CC2)c2cc(Cl)ccc21` [Example 155, (2R,3S)-2-(3-(5-chloro-3-cyclopropyl-1H-indazol-1-yl)propyl)piperidin-3-ol] was run?
Its IC50 is ≥ 500 nM.

With `O[C@H]1CCN[C@@H]1/C=C/Cn1cnc2cc(Cl)c(Cl)cc21` [Example 230, (2R,3S)-2-((E)-3-(5,6-dichloro-1H-benzo[d]imidazol-1-yl)prop-1-en-1-yl)pyrrolidin-3-ol] as the molecule, how does the IC50 read?
Its IC50 is ≥ 500 nM.

Which IC50 does the source give for `O[C@H]1CCCN[C@@H]1CCCn1cnc2cc(Cl)c(Br)cc21` [Example 36, (2R,3S)-2-(3-(6-bromo-5-chloro-1H-benzo[d]imidazol-1-yl)propyl)piperidin-3-ol] here?
Its IC50 is 100 to 500 nM.

Which IC50 does the source give for `COC(=O)c1cn(CCC[C@H]2NCCC[C@@H]2O)c2cc(Cl)ccc12` [Example 153, methyl 6-chloro-1-(3-((2R,3S)-3-hydroxypiperidin-2-yl)propyl)-1H-indole-3-carboxylate] here?
Its IC50 is 100 to 500 nM.

`Cc1ccc2c(ncn2CCC[C@H]2NCCC[C@@H]2O)n1` [Example 121, (2R,3S)-2-(3-(5-methyl-1H-imidazo[4,5-b]pyridin-1-yl)propyl)piperidin-3-ol] was tested. Which IC50 did it give?
The IC50 was 100 to 500 nM.

With `O[C@H]1CCCN[C@@H]1CCCn1cnc2cncc(Br)c21` [Example 128, (2R,3S)-2-(3-(7-bromo-1H-imidazo[4,5-c]pyridin-1-yl)propyl)piperidin-3-ol] as the molecule, how does the IC50 read?
The IC50 was ≥ 500 nM.

How did the IC50 turn out when `O[C@H]1CCCN[C@@H]1CCCn1cnc2cc(Cl)cc(F)c21` [Example 79, (2R,3S)-2-(3-(5-chloro-7-fluoro-1H-benzo[d]imidazol-1-yl)propyl)piperidin-3-ol] was run?
Its IC50 is ≤ 100 nM.

With `O[C@H]1CCCN[C@@H]1CCCn1cnc2cc(Cl)cc(Cl)c21` [Example 80, (2R,3S)-2-(3-(5,7-dichloro-1H-benzo[d]imidazol-1-yl)propyl)piperidin-3-ol] as the molecule, how does the IC50 read?
The IC50 was ≤ 100 nM.

For `COC(=O)c1cn(C/C=C/[C@H]2NCCC[C@@H]2O)c2cc(Cl)ccc12` [Example 211, methyl 6-chloro-1-((E)-3-((2R,3S)-3-hydroxypiperidin-2-yl)allyl)-1H-indole-3-carboxylate], which IC50 is on record?
The IC50 was ≥ 500 nM.

Which IC50 does the source give for `O[C@H]1CCCN[C@@H]1/C=C/Cn1cnc2c(F)cc(F)cc21` [Example 179, (2R,3S)-2-((E)-3-(4,6-difluoro-1H-benzo[d]imidazol-1-yl)prop-1-en-1-yl)piperidin-3-ol] here?
The IC50 was 100 to 500 nM.

`O[C@H]1CCCN[C@@H]1C#CCn1cnc2cc(Br)c(Br)cc21` [Example 228, (2R,3S)-2-(3-(5,6-dibromo-1H-benzo[d]imidazol-1-yl)prop-1-yn-1-yl)piperidin-3-ol] was tested. Which IC50 did it give?
Its IC50 is ≥ 500 nM.

How did the IC50 turn out when `O[C@H]1CCCN[C@@H]1/C=C/Cn1cnc2cc(F)c(F)cc21` [Example 171, (2R,3S)-2-((E)-3-(5,6-difluoro-1H-benzo[d]imidazol-1-yl)prop-1-en-1-yl)piperidin-3-ol] was run?
Its IC50 is ≥ 500 nM.

With `COC(=O)c1cn(CCC[C@H]2NCCC[C@@H]2O)c2cc(Br)ccc12` [Example 151, methyl 6-bromo-1-(3-((2R,3S)-3-hydroxypiperidin-2-yl)propyl)-1H-indole-3-carboxylate] as the molecule, how does the IC50 read?
Its IC50 is 100 to 500 nM.

How did the IC50 turn out when `Cc1c(Br)ccc2c1ncn2CCC[C@H]1NCCC[C@@H]1O` [Example 45, (2R,3S)-2-(3-(5-bromo-4-methyl-1H-benzo[d]imidazol-1-yl)propyl)piperidin-3-ol] was run?
The IC50 was 100 to 500 nM.

Which IC50 does the source give for `O[C@H]1CCCN[C@@H]1CCCn1cnc2ccc(-c3ccc(F)cc3)cc21` [Example 25, (2R,3S)-2-(3-(6-(4-fluorophenyl)-1H-benzo[d]imidazol-1-yl)propyl)piperidin-3-ol] here?
The IC50 was ≥ 500 nM.

How did the IC50 turn out when `CC(C)Cn1c(=O)n(C)c(=O)c2c1ncn2CCC[C@H]1NCCC[C@@H]1O` [Example 165, 7-(3-((2R,3S)-3-hydroxypiperidin-2-yl)propyl)-3-isobutyl-1-methyl-1H-purine-2,6(3H,7H)-dione] was run?
Its IC50 is ≥ 500 nM.

With `COC(=O)c1cn(C/C=C/[C@H]2NCCC[C@@H]2O)c2cccc(Cl)c12` [Example 210, methyl 4-chloro-1-((E)-3-((2R,3S)-3-hydroxypiperidin-2-yl)allyl)-1H-indole-3-carboxylate] as the molecule, how does the IC50 read?
The IC50 was ≥ 500 nM.

`Cc1sccc1-c1cc(Cl)cc2ncn(CCC[C@H]3NCCC[C@@H]3O)c12` [Example 92, (2R,3S)-2-(3-(5-chloro-7-(2-methylthiophen-3-yl)-1H-benzo[d]imidazol-1-yl)propyl)piperidin-3-ol] was tested. Which IC50 did it give?
The IC50 was 100 to 500 nM.

Which IC50 does the source give for `O[C@H]1CCCN[C@@H]1CCCn1cnc2cc(Cl)cc(-c3cnn(-c4nccs4)c3)c21` [Example 101, (2R,3S)-2-(3-(5-chloro-7-(1-(thiazol-2-yl)-1H-pyrazol-4-yl)-1H-benzo[d]imidazol-1-yl)propyl)piperidin-3-ol] here?
The IC50 was ≤ 100 nM.

With `O[C@H]1CCCN[C@@H]1CCCn1cnc2cccc(N3CCCC3)c21` [Example 98, (2R,3S)-2-(3-(7-(pyrrolidin-1-yl)-1H-benzo[d]imidazol-1-yl)propyl)piperidin-3-ol] as the molecule, how does the IC50 read?
Its IC50 is 100 to 500 nM.

How did the IC50 turn out when `COC(=O)c1cn(CCC[C@H]2NCCC[C@@H]2O)c2c(Br)cccc12` [Example 149, methyl 7-bromo-1-(3-((2R,3S)-3-hydroxypiperidin-2-yl)propyl)-1H-indole-3-carboxylate] was run?
The IC50 was 100 to 500 nM.

How did the IC50 turn out when `O=C(O)c1cn(C/C=C/[C@H]2NCCC[C@@H]2O)c2ccc(Br)cc12` [Example 204, 5-bromo-1-((E)-3-((2R,3S)-3-hydroxypiperidin-2-yl)allyl)-1H-indole-3-carboxylic acid] was run?
Its IC50 is ≥ 500 nM.

Which IC50 does the source give for `O[C@H]1CCCN[C@@H]1CCCn1cnc2cc(F)c(Br)cc21` [Example 33, (2R,3S)-2-(3-(6-bromo-5-fluoro-1H-benzo[d]imidazol-1-yl)propyl)piperidin-3-ol] here?
Its IC50 is 100 to 500 nM.

With `Cc1c(Br)ccc2c1ncn2C/C=C/[C@H]1NCCC[C@@H]1O` [Example 168, (2R,3S)-2-((E)-3-(5-bromo-4-methyl-1H-benzo[d]imidazol-1-yl)prop-1-enyl)piperidin-3-ol] as the molecule, how does the IC50 read?
The IC50 was 100 to 500 nM.

For `O[C@H]1CCCN[C@@H]1CCCn1cnc2ccc(C(F)(F)F)cc21` [Example 15, (2R,3S)-2-(3-(6-(trifluoromethyl)-1H-benzo[d]imidazol-1-yl)propyl)piperidin-3-ol], which IC50 is on record?
The IC50 was 100 to 500 nM.
